{"source": "patent US6060481A", "about": "“Method for improving insulin sensitivity using an adenosine receptor antagonist” (priority 1999, dated 2000)", "key": {"[1]": {"biological_target": "T1, human A1 adenosine receptor (Homo sapiens, UniProt P30542)", "T1 construct": "expressed in transfected cells", "T1 sequence (P30542 1-326)": "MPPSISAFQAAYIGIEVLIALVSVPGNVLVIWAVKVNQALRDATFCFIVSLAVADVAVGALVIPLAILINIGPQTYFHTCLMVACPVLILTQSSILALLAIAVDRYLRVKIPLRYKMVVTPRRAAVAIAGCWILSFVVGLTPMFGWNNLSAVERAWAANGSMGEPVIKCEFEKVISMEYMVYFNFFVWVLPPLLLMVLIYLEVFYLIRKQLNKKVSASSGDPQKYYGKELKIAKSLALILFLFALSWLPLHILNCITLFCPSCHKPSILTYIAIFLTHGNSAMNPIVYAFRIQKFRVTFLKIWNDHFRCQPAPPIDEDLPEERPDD", "test": "Binding constants against cloned and expressed human adenosine receptor subtypes (A1)", "conditions": "read-out: Binding constant (KD) A1"}, "[2]": {"system": "protein tyrosine phosphatases in WGA eluates", "conditions": "1 mM in the buffers", "protocol": "The procedure was modified by decreasing the length of autoradiographic exposure to increase sensitivity. ^32 P-poly Glu:Tyr4:1 substrate was incorporated into the 100% SDS polyacrylamide gel prior to polymerization. WGA eluates which were run on the gels were concentrated on Centricon filters to approximately 2 mg/ml. Aliquots (100 μg) were run on the gels. Gels were washed overnight to remove SDS. The proteins were first fully denatured in 6M guanidine HCl and then, after electrophoresis, renatured by incubation in phosphatase assay buffers containing 0.04% Tween® 40 and high concentrations of dithiothreitol (DTT). Next, the gels were dried and exposed to Kodak X-Omat x-ray film at -70° C. for various times. […] In some experiments, concentrated WGA eluates were treated with the antibody anti-PTPase 1B (5 g) prior to assaying phosphatase activity. The antibody was added to 50 μl concentrated eluate and the sample was incubated for 1 h on a tube vortexer at room temperature. Fifty μl of 50% protein A Agarose were centrifuged in a separate tube at 14,000 g for 30 sec. The supernatant was removed, and at the end of 1 h, the WGA eluate was introduced to the agarose precipitate and vortexing was continued for an additional 30 min. As a control, WGA eluates that were not treated with antibody were also introduced to the gels. […]"}}, "data": [{"compound": "CCCn1c(=O)[nH]c(=O)c2[nH]cnc21", "note": "[Enprofylline, 3-n-propylxanthine]", "values": [{"measurement": "Kd", "setting": "[1]", "result": 156, "unit": "µM"}]}, {"compound": "sodium vanadate", "values": [{"measurement": "PTPase bands in in-gel assay", "setting": "[2]", "result": "Bands disappeared"}]}]}
